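These data come from cells grown in 96-well plates and exposed to compound for 48 hours at five concentrations. TGI: concentration producing complete growth inhibition.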
Tests used:
Assay in all cases: NCI anticancer screen, dose series, 48 h
SR leukemia = tested on: SR leukemia
COLO 205 colon = tested on: COLO 205 colon
A498 renal = tested on: A498 renal
MDA-MB-435 = tested on: MDA-MB-435
BT-549 breast = tested on: BT-549 breast
OVCAR-3 ovarian = tested on: OVCAR-3 ovarian
NCI-H522 lung = tested on: NCI-H522 lung
HOP-92 NSCLC = tested on: HOP-92 NSCLC
PC-3 prostate = tested on: PC-3 prostate
MALME-3M melanoma = tested on: MALME-3M melanoma
OVCAR-4 ovarian = tested on: OVCAR-4 ovarian
HL-60(TB) leukemia = tested on: HL-60(TB) leukemia
HCT-15 colon = tested on: HCT-15 colon
M14 melanoma = tested on: M14 melanoma
EKVX NSCLC = tested on: EKVX NSCLC
UACC-62 melanoma = tested on: UACC-62 melanoma
OVCAR-5 ovarian = tested on: OVCAR-5 ovarian
DU-145 prostate = tested on: DU-145 prostate
SK-MEL-2 melanoma = tested on: SK-MEL-2 melanoma
SNB-19 CNS = tested on: SNB-19 CNS
U251 CNS = tested on: U251 CNS
CCRF-CEM leukemia = tested on: CCRF-CEM leukemia
HS 578T breast = tested on: HS 578T breast
ACHN renal = tested on: ACHN renal
SW-620 colon = tested on: SW-620 colon
SF-295 CNS = tested on: SF-295 CNS
CAKI-1 renal = tested on: CAKI-1 renal
NCI-H226 lung = tested on: NCI-H226 lung
LOX IMVI melanoma = tested on: LOX IMVI melanoma
SK-OV-3 ovarian = tested on: SK-OV-3 ovarian
NCI-H460 lung = tested on: NCI-H460 lung
HCC-2998 colon = tested on: HCC-2998 colon
NCI-H23 lung = tested on: NCI-H23 lung
MOLT-4 leukemia = tested on: MOLT-4 leukemia
SF-539 CNS = tested on: SF-539 CNS
UACC-257 melanoma = tested on: UACC-257 melanoma
T-47D breast = tested on: T-47D breast
SN12C renal = tested on: SN12C renal
SK-MEL-5 melanoma = tested on: SK-MEL-5 melanoma
HCT-116 colon = tested on: HCT-116 colon
A549 NSCLC = tested on: A549 NSCLC
786-0 renal = tested on: 786-0 renal
KM12 colon = tested on: KM12 colon
NCI/ADR-RES ovarian = tested on: NCI/ADR-RES ovarian
RPMI-8226 leukemia = tested on: RPMI-8226 leukemia
SF-268 CNS = tested on: SF-268 CNS
MDA-MB-231 breast = tested on: MDA-MB-231 breast
OVCAR-8 ovarian = tested on: OVCAR-8 ovarian
IGROV1 ovarian = tested on: IGROV1 ovarian
RXF 393 renal = tested on: RXF 393 renal
HOP-62 NSCLC = tested on: HOP-62 NSCLC
MCF7 breast = tested on: MCF7 breast
UO-31 renal = tested on: UO-31 renal
TK-10 renal = tested on: TK-10 renal
SK-MEL-28 melanoma = tested on: SK-MEL-28 melanoma
HT29 colon = tested on: HT29 colon
K-562 leukemia = tested on: K-562 leukemia
MDA-N = tested on: MDA-N
SNB-75 CNS = tested on: SNB-75 CNS

What does the source list for O=c1nc(N2CCN(c3ccccc3)CC2)ccn1C1OC(CO)C(O)C1O (configuration not stated)?
TGI (SR leukemia): > 100 µM; TGI (COLO 205 colon): > 100 µM; TGI (A498 renal): > 100 µM; TGI (MDA-MB-435): > 100 µM; TGI (BT-549 breast): > 100 µM; TGI (OVCAR-3 ovarian): > 100 µM; TGI (NCI-H522 lung): > 100 µM; TGI (HOP-92 NSCLC): > 100 µM; TGI (PC-3 prostate): > 100 µM; TGI (MALME-3M melanoma): > 100 µM; TGI (OVCAR-4 ovarian): > 100 µM; TGI (HL-60(TB) leukemia): 63.5 µM; TGI (HCT-15 colon): > 100 µM; TGI (M14 melanoma): > 100 µM; TGI (EKVX NSCLC): > 100 µM; TGI (UACC-62 melanoma): > 100 µM; TGI (OVCAR-5 ovarian): > 100 µM; TGI (DU-145 prostate): > 100 µM; TGI (SK-MEL-2 melanoma): > 100 µM; TGI (SNB-19 CNS): > 100 µM; TGI (U251 CNS): > 100 µM; TGI (CCRF-CEM leukemia): > 100 µM; TGI (HS 578T breast): > 100 µM; TGI (ACHN renal): > 100 µM; TGI (SW-620 colon): > 100 µM; TGI (SF-295 CNS): > 100 µM; TGI (CAKI-1 renal): > 100 µM; TGI (NCI-H226 lung): > 100 µM; TGI (LOX IMVI melanoma): > 100 µM; TGI (SK-OV-3 ovarian): > 100 µM; TGI (NCI-H460 lung): > 100 µM; TGI (HCC-2998 colon): > 100 µM; TGI (NCI-H23 lung): > 100 µM; TGI (MOLT-4 leukemia): > 100 µM; TGI (SF-539 CNS): > 100 µM; TGI (UACC-257 melanoma): > 100 µM; TGI (T-47D breast): 65.6 µM; TGI (SN12C renal): > 100 µM; TGI (SK-MEL-5 melanoma): > 100 µM; TGI (HCT-116 colon): > 100 µM; TGI (A549 NSCLC): > 100 µM; TGI (786-0 renal): > 100 µM; TGI (KM12 colon): > 100 µM; TGI (NCI/ADR-RES ovarian): > 100 µM; TGI (RPMI-8226 leukemia): > 100 µM; TGI (SF-268 CNS): > 100 µM; TGI (MDA-MB-231 breast): > 100 µM; TGI (OVCAR-8 ovarian): > 100 µM; TGI (IGROV1 ovarian): > 100 µM; TGI (RXF 393 renal): > 100 µM; TGI (HOP-62 NSCLC): > 100 µM; TGI (MCF7 breast): > 100 µM; TGI (UO-31 renal): > 100 µM; TGI (TK-10 renal): > 100 µM; TGI (SK-MEL-28 melanoma): > 100 µM; TGI (HT29 colon): > 100 µM; TGI (K-562 leukemia): > 100 µM; TGI (MDA-N): > 100 µM

Which TGI (SR leukemia) does the source give for CCOC(=O)CCc1cc(=O)oc2cc(O)cc(O)c12 here?
Its TGI is > 100 µM.

And the TGI (COLO 205 colon)?
Its TGI is > 100 µM.

And the TGI (A498 renal)?
The TGI was > 100 µM.

What about the TGI (MDA-MB-435) of the same molecule?
Its TGI is > 100 µM.

And the TGI (BT-549 breast)?
Its TGI is > 100 µM.

And the TGI (OVCAR-3 ovarian)?
Its TGI is > 100 µM.

What about the TGI (NCI-H522 lung) of the same molecule?
The TGI was > 100 µM.

And the TGI (HOP-92 NSCLC)?
The TGI was > 100 µM.

And the TGI (PC-3 prostate)?
Its TGI is > 100 µM.

What about the TGI (MALME-3M melanoma) of the same molecule?
The TGI was > 100 µM.

What about the TGI (OVCAR-4 ovarian) of the same molecule?
Its TGI is > 100 µM.

And the TGI (HL-60(TB) leukemia)?
Its TGI is > 100 µM.

And the TGI (HCT-15 colon)?
Its TGI is > 100 µM.

And the TGI (M14 melanoma)?
Its TGI is > 100 µM.

What about the TGI (EKVX NSCLC) of the same molecule?
The TGI was > 100 µM.

What about the TGI (UACC-62 melanoma) of the same molecule?
Its TGI is > 100 µM.

What about the TGI (OVCAR-5 ovarian) of the same molecule?
The TGI was > 100 µM.

What about the TGI (DU-145 prostate) of the same molecule?
Its TGI is > 100 µM.

What about the TGI (SK-MEL-2 melanoma) of the same molecule?
Its TGI is > 100 µM.

And the TGI (SNB-19 CNS)?
Its TGI is > 100 µM.

What about the TGI (U251 CNS) of the same molecule?
Its TGI is > 100 µM.

What about the TGI (CCRF-CEM leukemia) of the same molecule?
Its TGI is > 100 µM.

And the TGI (SNB-75 CNS)?
Its TGI is > 100 µM.

What about the TGI (HS 578T breast) of the same molecule?
The TGI was > 100 µM.

And the TGI (ACHN renal)?
Its TGI is > 100 µM.

And the TGI (SW-620 colon)?
Its TGI is > 100 µM.

And the TGI (SF-295 CNS)?
The TGI was > 100 µM.

What about the TGI (CAKI-1 renal) of the same molecule?
Its TGI is > 100 µM.

What about the TGI (NCI-H226 lung) of the same molecule?
Its TGI is > 100 µM.

What about the TGI (LOX IMVI melanoma) of the same molecule?
Its TGI is > 100 µM.

And the TGI (SK-OV-3 ovarian)?
The TGI was > 100 µM.

And the TGI (NCI-H460 lung)?
The TGI was > 100 µM.

And the TGI (HCC-2998 colon)?
The TGI was > 100 µM.

What about the TGI (NCI-H23 lung) of the same molecule?
The TGI was > 100 µM.

And the TGI (MOLT-4 leukemia)?
The TGI was > 100 µM.

And the TGI (SF-539 CNS)?
The TGI was > 100 µM.

What about the TGI (UACC-257 melanoma) of the same molecule?
Its TGI is > 100 µM.

What about the TGI (T-47D breast) of the same molecule?
The TGI was > 100 µM.

And the TGI (SN12C renal)?
The TGI was > 100 µM.

What about the TGI (SK-MEL-5 melanoma) of the same molecule?
The TGI was > 100 µM.

And the TGI (HCT-116 colon)?
The TGI was > 100 µM.

What about the TGI (A549 NSCLC) of the same molecule?
Its TGI is > 100 µM.

And the TGI (786-0 renal)?
Its TGI is > 100 µM.

And the TGI (KM12 colon)?
Its TGI is > 100 µM.

What about the TGI (NCI/ADR-RES ovarian) of the same molecule?
The TGI was > 100 µM.

And the TGI (RPMI-8226 leukemia)?
Its TGI is > 100 µM.

What about the TGI (SF-268 CNS) of the same molecule?
The TGI was > 100 µM.

What about the TGI (MDA-MB-231 breast) of the same molecule?
Its TGI is > 100 µM.

What about the TGI (OVCAR-8 ovarian) of the same molecule?
The TGI was > 100 µM.

And the TGI (IGROV1 ovarian)?
Its TGI is > 100 µM.

What about the TGI (RXF 393 renal) of the same molecule?
The TGI was > 100 µM.

What about the TGI (HOP-62 NSCLC) of the same molecule?
The TGI was > 100 µM.

And the TGI (MCF7 breast)?
Its TGI is > 100 µM.

And the TGI (UO-31 renal)?
The TGI was > 100 µM.

And the TGI (TK-10 renal)?
Its TGI is > 100 µM.

What about the TGI (SK-MEL-28 melanoma) of the same molecule?
Its TGI is > 100 µM.

And the TGI (HT29 colon)?
Its TGI is > 100 µM.

What about the TGI (K-562 leukemia) of the same molecule?
The TGI was > 100 µM.

And the TGI (MDA-N)?
Its TGI is > 100 µM.
